From patent US6846826B2, “Phenoxypropanol connected with phenylpiperazine and phenoxyalkylamine terminal in its side chain” (priority 2001, dated 2005)

What was measured:
[1] = Heart rate and blood pressure in living rat (anaesthetized, i.v.); type: in vivo, Wistar rat; settings: via femoral vein, dose not given (method: 0.5; 1.0; 3.0 mg/kg)
Excerpt: Male Wistar rats, weighing 200˜300 g were abdominal anaesthetized with pentobarbital sodium. Tracheal was cannulated to maintain normal respiration. Polyethylene tube (inside diameter 0.58 mm, outside diameter 0.97 mm) was inserted into the left femoral vein to facilitate drug administration. A 3-way stopcock was used, with one end connected to a syringe for drug injection, while the other end was connected to the syringe filled with physiological saline. The latter was used to prevent residual drugs in the polyethylene tube after injection, which would affect experimental accuracy.
The right femoral artery was also inserted with polyethylene, and a 3-way stopcock was used tool, where one end was connected to heparin solution to prevent embolism. The other end was connected to a Disposable Diaphragm Dome, TA10019, and linked to a transducer. Through an amplifier, a recorder recorded the overall and average arterial pressure; heart rate to evaluate the effect of drug on blood pressure and heart rate. Different concentrations 0.5; 1.0; 3.0 mg/kg of compounds were given to the rats via femoral vein and the differences in the heart rate and blood pressure were compared. Furthermore in another group, test compounds of concentration 0.5; 1.0; 3.0 mg/kg were separately given to different rats via femoral vein, and the differences in the heart rate and blood pressure were compared.

[2] = biological target: T1, β1 (Rattus norvegicus, UniProt P18090); assay: Isolated rat right atrium, antagonism of L-isoproterenol-induced rate increase (Schild plot); settings: for β1 pA2 value, Right atrium: vs L-isoproterenol, mean ± S.E. of six to eight
T1 construct: The right and left atria were then separated; from tissue; host or cells: isolated rat right atrium (spontaneously beating) and left atrium (electrically driven)
T1 sequence (P18090 whole entry): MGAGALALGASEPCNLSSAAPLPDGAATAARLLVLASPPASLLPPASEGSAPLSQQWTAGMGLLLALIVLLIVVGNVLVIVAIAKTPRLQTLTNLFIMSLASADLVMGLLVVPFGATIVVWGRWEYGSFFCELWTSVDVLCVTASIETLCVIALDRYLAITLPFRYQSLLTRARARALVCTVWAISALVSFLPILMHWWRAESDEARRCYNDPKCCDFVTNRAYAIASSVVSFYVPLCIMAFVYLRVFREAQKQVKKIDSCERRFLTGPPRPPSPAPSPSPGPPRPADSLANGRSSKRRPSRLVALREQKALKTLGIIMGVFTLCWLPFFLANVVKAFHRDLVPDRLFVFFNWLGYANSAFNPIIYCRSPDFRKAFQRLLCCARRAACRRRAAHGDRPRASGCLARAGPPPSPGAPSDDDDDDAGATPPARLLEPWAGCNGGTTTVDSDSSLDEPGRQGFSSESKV
Protocol: The entire heart of rat (weighing 200˜300 g) was removed immediately after the rat was sacrificed and the blood drained by incised carotid arteries, and placed in Kreb's solution equilibrated to a mixture of 95% O2 and 5% CO2 at room temperature (20˜25° C.). The right and left atria were then separated.
The spontaneously-beating right atria was clipped on both end by heart shaped clips, where one end was fixed at the bottom of 10 ml of tissue bath made of physiological saline solution, and temperature maintained at 37° C. The other end of the atria was connected to a force transducer, and isometric contractions and beating rate of the right atria were recorded by COULBOURN AT-High-Speed VideoFigure. After the samples were given 250 mg of contractions and reach equilibrium the following experiments were carried out:
(§1) When the spontaneously beating rate of right atria reached a certain stability, cumulative administration of L-isoproterenol from 1×10^−[…] M caused the heart rate to increase continuously, and a cumulative dose-response curve was obtained. Then the L-isoproterenol was thoroughly washed off with Kreb's solution to recover the right atria's heart rate stability. After the equilibrum was reached again for at least 60 minutes, different concentrations (10^−7, 10^−6, 10^−5 M) of compounds were added. 30 minutes later, cumulative administration of L-isoproterenol from […] were carried out again, and another new cumulative dose-response curve was obtained. Administration of L-isoproterenol started from concentration 1×10^−10 M, and the concentration was raised 0.5 log each time for a total of six times. Cumulative administration interval was when the previous concentration reached its greatest effect, the next concentration would be immediately given. The time interval was approximately 3˜5 minutes, and the EC50 value could be obtained. From Schild plots, the pA2 of compounds could be found. In other groups of rats, after separate administration of test compounds, their pA2 values were obtained.
(§2) According to the method mentioned by Arunlakshana, O. et al.(Br. J. Pharmacol. Vol.14, pp. 48-57, 1959), which used the logarithm values of compound concentration testings as the x-coordinates, and the logarithm values of blocking agent of similar effect and […] as the y-coordinates, the data obtained were plotted into Figures and the slope of regression found. From x-coordinates of the line of regression, the intercept value was found, which is the pA2 value of the compound under testing. The equation is as follows: [formula] [formula] • [B]=Test compound concentration in moles • KB: equilibrium dissociation constant • n: value of slope • DR: test EC50 divided by control EC50 • CF: EC50 of second or third control groups divided by EC50 of first control group

[3] = biological target: T1, β1; assay: Isolated rat left atrium (electrically driven), antagonism of L-isoproterenol (Schild plot); settings: for β1 pA2 value, Left atrium: vs L-isoproterenol, mean ± S.E. of six to eight
Protocol: as §1, §2
The inspontaneously-beating left atrial tissue was obtained from rat's isolated right atrial tissue experiments. […] The contraction rate was 2 Hz and the resting tension 0.5 gm. After 60 minutes of equilibration, the following experiments were performed: • (a) Completion of cumulative concentration-response curve: similar to experimental method on isolated right atrium; • (b) Calculation of pA2 value: similar to calculation method on isolated right atrium.

[4] = biological target: T2, β2 (Cavia porcellus, UniProt Q8K4Z4); assay: Isolated guinea pig trachea, antagonism of L-isoproterenol relaxation (Schild plot); settings: for β2 pA2 value, Trachea: vs L-isoproterenol, mean ± S.E. of six to eight
T2 construct: a portion of tracheal approximately 4 cm long was removed; from tissue; host or cells: isolated guinea pig trachea (reserpinised animals)
T2 sequence (Q8K4Z4 whole entry): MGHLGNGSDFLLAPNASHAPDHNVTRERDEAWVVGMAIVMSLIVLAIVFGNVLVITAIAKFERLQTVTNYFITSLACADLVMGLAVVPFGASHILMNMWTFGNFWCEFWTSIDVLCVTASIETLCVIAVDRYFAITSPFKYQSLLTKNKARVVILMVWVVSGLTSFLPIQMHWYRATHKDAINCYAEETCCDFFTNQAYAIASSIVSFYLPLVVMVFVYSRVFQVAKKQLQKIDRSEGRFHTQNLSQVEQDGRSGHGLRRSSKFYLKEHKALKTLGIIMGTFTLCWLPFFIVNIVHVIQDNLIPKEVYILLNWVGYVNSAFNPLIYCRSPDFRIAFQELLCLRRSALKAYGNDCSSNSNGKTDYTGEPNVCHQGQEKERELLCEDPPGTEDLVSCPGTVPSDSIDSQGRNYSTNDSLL
Protocol: Guinea pigs of weight between 250˜350 gm were used.
After the guinea pigs were sacrificed, a slit was made along the neck, and a portion of tracheal approximately 4 cm long was removed. The tracheal was then placed in Kreb's solution aerated with a mixture of 95% O2 and 5% CO2 and maintained at room temperature about 22˜25° C. […] The two ends of the tracheal were clamped with frog-heart shaped clamps, one end was fixed at the bottom of tissue bath filled with 200 ml of Kreb's solution, maintained at 37° C., while the other end was connected to a force transducer. Through a COULBOURN AT-High-Speed Videograph, long isometric contractions were recorded. After the sample was given 1.5 gm of tension and equilibrated, the following experiments were performed:
Then the tracheal was repeatedly washed with Kreb's solution for 20 minutes and […] of carbochol was added to cause contraction in the guinea pig's tracheal. When the contraction reached the maximum, every division of tracheal was used to complete two concentration response curve of L-isoproternol, one of them without administration of test compound and used as control; while the other curve was administered with 10^−7, 10^−6 and 10^−5 M test compounds for 30 minutes before concentration response curve was completed. This is the test group.
Similar to the calculation method for isolated right atrium experiment.

[5] = test system: α1; assay: Isolated Wistar rat thoracic aorta, antagonism of norepinephrine contraction (Schild plot); settings: vs norepinephrine, mean ± S.E. of six to eight
Protocol: (§3) After sacrificing Wistar rat of weight between 200˜300 gm, the thoracic aorta was immediately removed and placed in cold Kreb's solution. The fatty connecting tissue surrounding the vessel wall was removed and the thoracic aorta was cut into rings of length 5 mm. The two ends of each ring was pieced and fixed with “Z” shaped platinum wires. Then the thoracic aorta was suspended in 10 ml of tissue bath, aerated with air mixture (95% O2+5% CO2) and maintained at 37° C., where one end was fixed at the bottom of tissue trough, the other end connected to force transducer to record the long contraction via recorder. The sample was given 1 gm of tension and equilibrated for 60 minutes before the following experiments were carried out.
After thoracic aorta had reached equilibrium in the tissue trough, cumulative administration of norepinephrine from 10^−10˜3×10^−4 M caused the blood vessel contract to increase tension continuously, and a cumulative dose-response curve was obtained. Then the norepinephrine was thoroughly washed off with Kreb's solution to recover the aorta stability. After the equilibrum was reached again for at least 60 minutes, different concentrations as 10^−7, 10^−6, 10^−5 M of test compounds were added. 30 minutes later, cumulative administration of norepinephrine from […] were carried out again, and another new cumulative dose-response curve was obtained. Administration of norepinephrine started from concentration 1×10^−10 M, and the concentration was raised 0.5 log each time. Cumulative administration interval was when the previous concentration reached its greatest effect, the next concentration would be immediately given. The time interval was approximately 3˜5 minutes, and the EC50 value could be obtained. From Schild plots, the pA2 of test compounds could be found. Calculation of pA2 value: similar to calculation method on isolated right atrium.

[6] = test system: Calcium; assay: Isolated Wistar rat thoracic aorta, antagonism of CaCl2-induced contraction; settings: vs CaCl2
Protocol: as §3
After thoracic aorta had reached equilibrium in the tissue trough, cumulative administration of CaCl2 from […] caused the blood vessel contract to increase tension continuously, and a cumulative dose-response curve was obtained. Then the CaCl2 was thoroughly washed off with Kreb's solution to recover the aorta stability. After the equilibrum was reached again for at east 60 minutes, different concentrations as 10^−8, 10^−7, 10^−6 M of test compounds were added. 30 minutes later, cumulative administration of CaCl2 from 3×10^−5˜10^−2 M were carried out again, and another new cumulative dose-response curve was obtained. Cumulative administration interval was when the previous concentration reached its greatest effect, the next concentration would be immediately given. The time interval was approximately 3˜5 minutes, and the EC50 value could be obtained. From Schild plots, the pA2 of test compounds could be found. Calculation of pA2 value: similar to calculation method on isolated right atrium.

| SMILES | Decrease of blood pressure [1] [mmHg] | β1 Slope of Schild plot, Right atrium [2] | β1 pA2 value, Right atrium [2] | β1 Slope of Schild plot, Left atrium [3] | β1 pA2 value, Left atrium [3] | β2 Slope of Schild plot, Trachea [4] | β2 pA2 value, Trachea [4] | α1 pA2 value, Aorta [5] | Calcium PKCa^−1 value, Aorta [6] |
| --- | --- | --- | --- | --- | --- | --- | --- | --- | --- |
| COC(=O)C1=C(C)NC(C)=C(C(=O)OC)C1c1ccc(OCC(O)CNCCOc2ccccc2OC)cc1 (stereo not drawn) [Labedipinedilol-B] | 60 ± 15 | (0.97 ± 0.10) | 6.61 ± 0.11 | (0.83 ± 0.06) | 6.81 ± 0.08 | (0.85 ± 0.03) | 6.48 ± 0.07 | 7.55 ± 0.05 | 8.02 ± 0.04 |
| COC(=O)C1=C(C)NC(C)=C(C(=O)OC)C1c1ccc(OCC(O)CNCCOc2ccccc2Cl)c(OC)c1 (stereo not drawn) [Labedipinedilol-E] | 58 ± 7 | (1.12 ± 0.06) | 6.24 ± 0.06 | (1.07 ± 0.05) | 6.15 ± 0.09 | (0.65 ± 0.03) | 5.07 ± 0.12 | 8.46 ± 0.05 | 8.08 ± 0.04 |
| COC(=O)C1=C(C)NC(C)=C(C(=O)OC)C1c1ccc(OCC(O)CNCCOc2ccccc2C)c(OC)c1 (stereo not drawn) [Labedipinedilol-D] | 55 ± 9 | (0.84 ± 0.03) | 7.23 ± 0.03 | (1.12 ± 0.04) | 6.31 ± 0.12 | (1.10 ± 0.06) | 5.70 ± 0.06 | 7.23 ± 0.05 | 8.23 ± 0.06 |
| COC(=O)C1=C(C)NC(C)=C(C(=O)OC)C1c1ccc(OCC(O)CN2CCN(c3ccccc3Cl)CC2)c(OC)c1 (stereo not drawn) [Labedipinedilol-C] | 50 ± 17 | (1.02 ± 0.04) | 7.01 ± 0.09 | (0.99 ± 0.03) | 7.23 ± 0.07 | (0.92 ± 0.02) | 5.54 ± 0.16 | 6.87 ± 0.08 | 8.12 ± 0.04 |
